Where only a bound is given, the exact number is not on record here.

For data set [1], the system named is rgRSV224 virus. In words: microbe, parasite or virus in culture. It counts as cell-based, respiratory syncytial virus (RSV). The note with it: human respiratory syncytial virus, HeLa, 72 h, read-out: RSV-wt_EC50. As for the experimental part: (§1) Black 96-well clear-bottom microtiter plates (Corning, Amsterdam, The Netherlands) were filled in duplicate using a customized robot system with serial 4-fold dilutions of compound in a final volume of 50 μl culture medium [RPMI medium without phenol red, 10% FBS, 0.04% gentamycin (50 mg/mL) and 0.5% DMSO]. Then, 100 μl of a HeLa cell suspension (5×10^4 cells/mL) in culture medium was added to each well followed by the addition of 50 μl rgRSV224 (MOI=0.02) virus in culture medium using a multidrop dispenser (Thermo Scientific, Erembodegem, Belgium). rgRSV224 virus is an engineered virus that includes an additional GFP gene (Hallak et al, 2000) and was in-licensed from the NIH (Bethesda, Md., USA). Medium, virus- and mock-infected controls were included in each test. Cells were incubated at 37° C. in a 5% CO2 atmosphere. Three days post-virus exposure, viral replication was quantified by measuring GFP expression in the cells by a MSM laser microscope (Tibotec, Beerse, Belgium). The EC50 was defined as the 50% inhibitory concentration for GFP expression. In parallel, compounds were incubated for three days in a set of white 96-well microtitier plates (Corning) and the cytotoxicity of compounds in HeLa cells was determined by measuring the ATP content of the cells using the ATPlite kit (PerkinElmer, Zaventem, Belgium) according to the manufacturer's instructions. The CC50 was defined as the 50% concentration for cytotoxicity.

Data set [2] has as its system HeLa cells. The experiment in a line: Cytotoxicity in HeLa cells, ATP content (ATPlite kit). The class given is cell-based. The note with it: HeLa cells, three days incubation, ATP content. As for the experimental part: as §1
Background: In ATP-based viability assays light output follows the ATP content of the culture.

`O=c1n(Cc2nc3cc(Br)cnc3n2CCCCO)c2cnccc2n1C1COC1` [Compound 20, 3-((6-bromo-3-(4-hydroxybutyl)-3H-imidazo[4,5-b]pyridin-2-yl)methyl)-1-(oxetan-3-yl)-1H-imidazo[4,5-c]pyridin-2(3H)-one]: the EC50 in data set [1] was 36.1 nM. The same compound gave a TOX-HELA_EC50 in data set [2] greater than 9.836 µM.

Consider `CC(C)CCn1c(Cn2c(=O)n(C3CC3)c3ccncc32)nc2ncccc21` [Compound 5, 1-cyclopropyl-3-((1-isopentyl-1H-imidazo[4,5-b]pyridin-2-yl)methyl)-1H-imidazo[4,5-c]pyridin-2(3H)-one], for which the EC50 in data set [1] stood at 8.67 nM. For the same compound, in data set [2], the TOX-HELA_EC50 was greater than 98.3603 µM.

Consider `CC(C)CCn1c(Cn2c(=O)n(C3COC3)c3ccncc32)nc2cnccc21` [Compound 36], for which the EC50 in data set [1] was determined as 94.9 nM. In addition, the TOX-HELA_EC50 in data set [2] is greater than 9.836 µM.

With `CC(C)CCn1c(Cn2c(=O)n(C3CC3)c3ccncc32)nc2cnccc21` [Compound 33], the EC50 in data set [1] turned out to be 30.4 nM. The compound further returned a TOX-HELA_EC50 in data set [2] greater than 98.3603 µM.

With `CC(C)CCn1c(Cn2c(=O)n(C3CC3)c3ccc(F)cc32)nc2ncccc21` [Compound 8, 1-cyclopropyl-5-fluoro-3-((1-isopentyl-1H-imidazo[4,5-b]pyridin-2-yl)methyl)-1H-benzo[d]imidazol-2(3H)-one], in data set [1], the EC50 is 15.9 nM. The TOX-HELA_EC50 in data set [2] was greater than 9.836 µM.

As to `CC(C)CCn1c(Cn2c(=O)n(C3CC3)c3ccccc32)nc2cnccc21` [Compound 31], the EC50 in data set [1] turned out to be 5.4 nM. In addition, the TOX-HELA_EC50 in data set [2] was greater than 9.836 µM.

In the case of `CC(C)CCn1c(Cn2c(=O)n(C3COC3)c3ccncc32)nc2nc(Cl)ccc21` [Compound 2, 3-((5-chloro-1-isopentyl-1H-imidazo[4,5-b]pyridin-2-yl)methyl)-1-(oxetan-3-yl)-1H-imidazo[4,5-c]pyridin-2(3H)-one], the EC50 in data set [1] came out at 1.58 nM. In data set [2], this compound showed a TOX-HELA_EC50 greater than 9.836 µM.

Take `CC(C)CCn1c(Cn2c(=O)n(C3CC3)c3ccncc32)nc2cc(C(=O)O)cnc21` [Compound 28, 2-((1-cyclopropyl-2-oxo-1H-imidazo[4,5-c]pyridin-3(2H)-yl)methyl)-3-isopentyl-3H-imidazo[4,5-b]pyridine-6-carboxylic acid]: the EC50 in data set [1] is greater than 49200 nM. The TOX-HELA_EC50 in data set [2] was greater than 49.1802 µM.

On to `COCCCn1c(Cn2c(=O)n(C3CC3)c3ccc(F)cc32)nc2ncccc21` [Compound 15, 1-cyclopropyl-5-fluoro-3-((1-(3-methoxypropyl)-1H-imidazo[4,5-b]pyridin-2-yl)methyl)-1H-benzo[d]imidazol-2(3H)-one], for which the EC50 in data set [1] is 220 nM. This compound displayed a TOX-HELA_EC50 in data set [2] greater than 98.3603 µM.

As for `CS(=O)(=O)CCCn1c(Cn2c(=O)n(C3CC3)c3ccncc32)nc2ncccc21` [Compound 7, 1-cyclopropyl-3-((1-(3-(methylsulfonyl)propyl)-1H-imidazo[4,5-b]pyridin-2-yl)methyl)-1H-imidazo[4,5-c]pyridin-2(3H)-one], the EC50 in data set [1] was determined as 13.7 nM. Further, the TOX-HELA_EC50 in data set [2] was greater than 9.836 µM.

For the compound `CC(C)CCn1c(Cn2c(=O)n(C3CC3)c3ccccc32)nc2ncccc21` [Compound 4, 1-cyclopropyl-3-((1-isopentyl-1H-imidazo[4,5-b]pyridin-2-yl)methyl)-1H-benzo[d]imidazol-2(3H)-one], the EC50 in data set [1] stood at 7.08 nM. In addition, the TOX-HELA_EC50 in data set [2] is greater than 9.836 µM.

As to `O=c1n(Cc2nc3cc(Cl)cnc3n2CCCCO)c2cnccc2n1C1CC1` [Compound 21, 3-((6-chloro-3-(4-hydroxybutyl)-3H-imidazo[4,5-b]pyridin-2-yl)methyl)-1-cyclopropyl-1H-imidazo[4,5-c]pyridin-2(3H)-one], the EC50 in data set [1] is 54.6 nM. This compound also displayed a TOX-HELA_EC50 in data set [2] greater than 9.836 µM.

Take `CC(C)CCn1c(Cn2c(=O)n(C(C)C)c3ccnc(Cl)c32)nc2cccnc21` [Compound 25, 4-chloro-3-((3-isopentyl-3H-imidazo[4,5-b]pyridin-2-yl)methyl)-1-isopropyl-1H-imidazo[4,5-c]pyridin-2(3H)-one]: in data set [1], the EC50 came to 8270 nM. The same compound returned a TOX-HELA_EC50 in data set [2] greater than 24.5901 µM.

Take `COC(=O)c1cnc2c(c1)nc(Cn1c(=O)n(C3CC3)c3ccncc31)n2CCC(C)C` [Compound 26, methyl 2-((1-cyclopropyl-2-oxo-1H-imidazo[4,5-c]pyridin-3(2H)-yl)methyl)-3-isopentyl-3H-imidazo[4,5-b]pyridine-6-carboxylate]: the EC50 in data set [1] came to 8610 nM. Besides, in data set [2], the TOX-HELA_EC50 is greater than 98.3603 µM.

Turning to `O=c1n(Cc2nc3nc(Cl)ccc3n2CCCC(F)(F)F)c2cnccc2n1C1CC1` [Compound 39, 3-((5-chloro-1-(4,4,4-trifluorobutyl)-1H-imidazo[4,5-b]pyridin-2-yl)methyl)-1-cyclopropyl-1H-imidazo[4,5-c]pyridin-2(3H)-one], the EC50 in data set [1] turned out to be 0.96 nM. Moreover, the TOX-HELA_EC50 in data set [2] is greater than 98.3603 µM.

For the compound `CC(C)CCn1c(Cn2c(=O)n(C3CC3)c3ccncc32)nc2cc(C#N)cnc21` [Compound 27, 2-((1-cyclopropyl-2-oxo-1H-imidazo[4,5-c]pyridin-3(2H)-yl)methyl)-3-isopentyl-3H-imidazo[4,5-b]pyridine-6-carbonitrile], the EC50 in data set [1] is 34100 nM. Also, the TOX-HELA_EC50 in data set [2] is greater than 98.3603 µM.

`O=c1n(Cc2nc3cc(F)cnc3n2CCCCO)c2cnccc2n1C1CC1` [Compound 22, 1-cyclopropyl-3-((6-fluoro-3-(4-hydroxybutyl)-3H-imidazo[4,5-b]pyridin-2-yl)methyl)-1H-imidazo[4,5-c]pyridin-2(3H)-one]: the EC50 in data set [1] was determined as 403 nM. The TOX-HELA_EC50 in data set [2] is greater than 9.836 µM.

Regarding `CC(C)CCn1c(Cn2c(=O)n(C3CC3)c3ccc(F)cc32)nc2cnccc21` [Compound 32], the EC50 in data set [1] was found to be 11.3 nM. In data set [2], this compound came in with a TOX-HELA_EC50 greater than 9.836 µM.

Turning to `COCCCn1c(Cn2c(=O)n(C3COC3)c3ccncc32)nc2ncccc21` [Compound 12, 3-((1-(3-methoxypropyl)-1H-imidazo[4,5-b]pyridin-2-yl)methyl)-1-(oxetan-3-yl)-1H-imidazo[4,5-c]pyridin-2(3H)-one], the EC50 in data set [1] came out at 1940 nM. In data set [2], this compound displayed a TOX-HELA_EC50 greater than 98.3603 µM.

Take `CC(C)CCn1c(Cn2c(=O)n(C3COC3)c3ccncc32)nc2cc(Br)cnc21` [Compound 18, 3-((6-bromo-3-isopentyl-3H-imidazo[4,5-b]pyridin-2-yl)methyl)-1-(oxetan-3-yl)-1H-imidazo[4,5-c]pyridin-2(3H)-one]: the EC50 in data set [1] is 17.3 nM. In data set [2], this compound had a TOX-HELA_EC50 greater than 9.836 µM.

As for `O=c1n(Cc2nc3ncccc3n2CCCC(F)(F)F)c2cnccc2n1C1CC1` [Compound 41, 1-cyclopropyl-3-((1-(4,4,4-trifluorobutyl)-1H-imidazo[4,5-b]pyridin-2-yl)methyl)-1H-imidazo[4,5-c]pyridin-2(3H)-one], in data set [1], the EC50 turned out to be 7.1 nM. Besides, the TOX-HELA_EC50 in data set [2] is greater than 98.3603 µM.

As for `O=c1n(Cc2nc3ncccc3n2CCCF)c2cnccc2n1C1CC1` [Compound 11], in data set [1], the EC50 amounted to 90.9 nM. In data set [2], this compound gave a TOX-HELA_EC50 greater than 9.836 µM.

On to `O=c1n(Cc2nc3c(Cl)nccc3n2CCCCOCc2ccccc2)c2cnccc2n1C1CC1` [Compound 38, 3-((1-(4-benzyloxy)butyl)-4-chloro-1H-imidazo[4,5-c]pyridin-2-yl)methyl-1-cyclopropyl-1H-imidazo[4,5-c]pyridin-2(3H)-one], for which the EC50 in data set [1] is 1480 nM. The compound also returned a TOX-HELA_EC50 in data set [2] greater than 98.3603 µM.

Source of the values: patent US9321767B2, “Azabenzimidazoles as respiratory syncytial virus antiviral agents” (JANSSEN SCIENCES IRELAND UC, priority 2010, dated 2016).
